Laboratory results: US20210380545A1, “(S)-ENANTIOMERIC FORM OF A HETEROCYCLIC COMPOUND HAVING MOTIVATION IMPROVING AND/OR REFERENCE MEMORY ENHANCING ACTIVITY” (Red Bull GmbH, priority 2018, published 2021)
Where two headings read alike, the source gives them in different places.

Legend:
[1] = biological target: T1, human dopamine transporter (DAT) (Homo sapiens, UniProt Q01959); experiment: Reuptake inhibition assay, [3H]-dopamine uptake in HEK-DAT cells; type: cell-based
T1 construct: expressed in transfected cells
T1 sequence (Q01959 whole entry): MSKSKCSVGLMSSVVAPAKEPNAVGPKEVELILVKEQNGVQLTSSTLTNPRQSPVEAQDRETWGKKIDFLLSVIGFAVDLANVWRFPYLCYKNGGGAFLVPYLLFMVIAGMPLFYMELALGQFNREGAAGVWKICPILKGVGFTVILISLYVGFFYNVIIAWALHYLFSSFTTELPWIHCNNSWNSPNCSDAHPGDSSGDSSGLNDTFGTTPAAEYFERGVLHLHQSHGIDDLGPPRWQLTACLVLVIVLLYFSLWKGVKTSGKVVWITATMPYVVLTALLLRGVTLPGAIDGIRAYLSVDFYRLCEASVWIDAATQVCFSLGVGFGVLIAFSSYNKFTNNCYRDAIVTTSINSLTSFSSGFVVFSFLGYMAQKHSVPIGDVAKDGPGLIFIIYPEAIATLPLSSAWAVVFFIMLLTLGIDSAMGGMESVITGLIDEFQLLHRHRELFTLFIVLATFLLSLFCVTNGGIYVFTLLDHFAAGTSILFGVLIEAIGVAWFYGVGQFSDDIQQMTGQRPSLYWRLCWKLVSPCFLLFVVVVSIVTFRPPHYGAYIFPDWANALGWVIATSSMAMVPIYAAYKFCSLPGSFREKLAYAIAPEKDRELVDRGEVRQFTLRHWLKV

Male Sprague-Dawley rats = experiment: Holeboard test (reference memory index, RMI); type: in vivo, rat
Description: Male Sprague-Dawley rats (17 to 18 weeks and 22 to 23 months old), bred and maintained in the Core Unit of Biomedical Research, Division of Laboratory Animal Science and Genetics, Medical University of Vienna were used. The animals were transferred to a separate experimental room one week before the start of the experimental procedure and kept there throughout the experiment individually in standard Makrolon cages filled with autoclaved woodchips temperature: 22±2° C.; humidity: 55±5%; 12 h artificial light/12 h dark cycle: light on at 7:00 am). The study was carried out according to the guidelines of the Ethics committee, Medical University of Vienna, and were approved by the Federal Ministry of Education, Science and Culture, Austria.
The holeboard (1 m×1 m) was made of black plastic and was surrounded by translucent plexiglass walls. The walls were equipped with spatial cues. Distal cues were provided by room structures outside the board. Four out of sixteen regularly arranged holes (diameter and depth 7 cm) were baited (dustless precision pellets, 45 mg, Bioserv®). The pattern of baited holes remained the same during the entire test. To avoid olfactory orientation pellets were also present in an area below the board. Prior to the experiment for three days the rats were handled for 15 min to get familiarized to the experimenter, followed by two days of habituation to the hole-board during which the animals could explore the maze for 15 min each day with access to food pellets. The weight of each rat was reduced by food restriction to reach 85% of its initial body weight before the start of the experiment. Tap water was given ad libitum. Rats were trained for three days (five trials on day one, four trials on day 2 and a retention trial at day 3). Every trial lasted for 120 s or until all four pellets were found. The apparatus was cleaned with 0.1% Incidin® (Ecolab, Dusseldorf, Germany) between trials to remove odor cues. The interval between two successive trials for an individual was 20 min. A camera mounted on the room ceiling recorded the performance of the rats in the maze. […] To compare rats with similar levels of motivation, rats with less than 40-hole visits in total over the ten trials were excluded from the analysis. Reference memory errors were noted as the number of visits to the unbaited holes. The Reference Memory Index (RMI) was calculated using the formula (first+revisits of baited holes)/total visits of all holes. All behavioral training/testing was performed during the light phase of the light-dark cycle.

[2] = biological target: T2, human nor-epinephrine transporter (NET) (Homo sapiens, UniProt P23975); experiment: Reuptake inhibition assay, [3H]MPP+ uptake in HEK-NET cells; type: cell-based; details: HEK293 cells expressing human NET, 0.05 μM [3H]MPP+, 3 min
T2 construct: expressed in transfected cells
T2 sequence (P23975 whole entry): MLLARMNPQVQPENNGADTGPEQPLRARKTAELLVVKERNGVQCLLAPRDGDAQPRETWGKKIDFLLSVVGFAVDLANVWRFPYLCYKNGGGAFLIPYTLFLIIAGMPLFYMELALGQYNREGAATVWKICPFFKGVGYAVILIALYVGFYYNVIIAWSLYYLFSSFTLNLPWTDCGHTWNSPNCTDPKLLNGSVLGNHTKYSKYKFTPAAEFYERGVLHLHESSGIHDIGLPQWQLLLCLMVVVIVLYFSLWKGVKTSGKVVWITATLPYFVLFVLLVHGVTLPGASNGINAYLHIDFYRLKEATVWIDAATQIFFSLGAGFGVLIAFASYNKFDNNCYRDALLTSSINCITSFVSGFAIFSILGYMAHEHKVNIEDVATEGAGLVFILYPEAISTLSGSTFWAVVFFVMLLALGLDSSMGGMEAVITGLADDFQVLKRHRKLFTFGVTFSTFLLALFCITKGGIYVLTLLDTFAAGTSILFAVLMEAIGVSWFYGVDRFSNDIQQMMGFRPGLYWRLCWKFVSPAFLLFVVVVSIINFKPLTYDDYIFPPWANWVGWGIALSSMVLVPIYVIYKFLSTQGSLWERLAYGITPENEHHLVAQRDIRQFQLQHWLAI

[3] = biological target: T3, human serotonin transporter (SERT) (Homo sapiens, UniProt P31645); experiment: Reuptake inhibition assay, [3H]5-HT uptake in HEK-SERT cells; type: cell-based; details: HEK293 cells expressing human SERT, 0.4 μM [3H]5-HT, 1 min
T3 construct: expressed in transfected cells
T3 sequence (P31645 whole entry): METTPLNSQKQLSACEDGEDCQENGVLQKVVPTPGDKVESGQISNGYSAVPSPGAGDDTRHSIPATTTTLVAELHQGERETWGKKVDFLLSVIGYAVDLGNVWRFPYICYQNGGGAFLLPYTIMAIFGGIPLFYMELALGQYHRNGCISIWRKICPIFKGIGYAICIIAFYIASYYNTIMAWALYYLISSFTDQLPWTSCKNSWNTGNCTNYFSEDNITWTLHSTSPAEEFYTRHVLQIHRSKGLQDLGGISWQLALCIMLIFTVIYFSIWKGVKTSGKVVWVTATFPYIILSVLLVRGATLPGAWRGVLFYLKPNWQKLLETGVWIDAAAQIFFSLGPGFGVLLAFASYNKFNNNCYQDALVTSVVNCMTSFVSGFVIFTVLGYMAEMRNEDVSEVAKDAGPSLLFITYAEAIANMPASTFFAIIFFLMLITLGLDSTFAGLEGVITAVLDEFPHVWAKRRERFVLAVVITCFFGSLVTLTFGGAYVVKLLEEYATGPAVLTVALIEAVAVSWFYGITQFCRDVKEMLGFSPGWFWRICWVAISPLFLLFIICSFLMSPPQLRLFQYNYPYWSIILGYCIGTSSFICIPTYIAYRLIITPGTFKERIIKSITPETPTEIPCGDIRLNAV

[4] = tested on: Adult male Sprague-Dawley rats; details: for chow intake vs vehicle treatment / lever pressing vs vehicle treatment: TBZ 1.0 mg/kg plus vehicle vs vehicle/vehicle
Description: Rats were assessed using the fixed ratio 5/chow feeding choice test.
Adult male Sprague-Dawley rats (Envigo Sprague Dawley, Indianapolis, Ind., USA; weights 275-299 g upon arrival) were pair-housed in a colony maintained at 23° C., with a 12-h light/dark cycle (lights on 07:00). Rats were food deprived to 85% of their free-feeding body weight for operant training and allowed modest growth throughout the experiment. Water was available ad libitum in the home cages.
Behavioural sessions were conducted in operant chambers (28×23×23 cm3; Med Associates, Fairfax, Vt.) with 30 minute sessions 5 days/week. Rats were initially trained to lever press on a continuous reinforcement FR1 schedule (high-carbohydrate 45 mg pellets, Bio-Serv, Frenchtown, N.J.) and then shifted to the FR5 schedule. After 5 weeks of training on the FR5 schedule, chow was introduced. Weighed amounts of laboratory chow (Laboratory Diet, 5P00 Prolab RMH 3000, Purina Mills, St. Louis, Mo.; typically 15-20 g) were concurrently available on the floor of the chamber during the FR5/chow feeding choice task sessions. At the end of each 30 minute session, rats were immediately removed from the chambers, number of lever presses was recorded, and the amount of chow consumed was determined by weighing the remaining food (including spillage). Rats were trained on the FR5/chow feeding choice procedure for 5 weeks, after which drug testing began. On baseline and drug treatment days, rats consumed all of the operant pellets that were delivered during each session.
The DMSO/Tween 80/saline solution was administered as the vehicle control. TBZ was obtained from Tocris Bioscience (Ellisville, Mo.) and was dissolved in DMSO, 0.9% saline, and titrated with HCl. The DMSO/saline solution was administered as the vehicle control. The TBZ dose was 1.0 mg/kg.
The experiment used a within-groups design, with each rat receiving each drug treatment in a randomly varied order (one treatment per week, with none of the treatment sequences repeated across different animals).
Total number of lever presses and gram quantity of chow intake from the 30 minute sessions were analysed using repeated measures ANOVA. […] When there was a significant ANOVA, non-orthogonal planned comparisons were performed, using the overall error term to assess differences between each treatment and the control condition.

[5] = HEK293 cells expressing human DAT, 0.2 μM [3H]-dopamine, 1 min, read-out: IC50, inhibition of DAT-mediated dopamine reuptake
[6] = p<0.001, listed as Tetrabenazine

Structure (SMILES): [O-][S+](Cc1cncs1)C(c1ccccc1)c1ccccc1 (racemic) [Compound C3, 5-(diphenylmethanesulfinylmethyl)-1,3-thiazole]
- IC50 [1, 5]: 4.6 µM

Structure (SMILES): [O-][S@@+](Cc1cncs1)C(c1ccccc1)c1ccccc1 [Compound C1, (S)-5((diphenylmethanesulfinyl)-methyl-1,3-thiazole)]
- Reference Memory Index (RMI) vs controls, entire training (Male Sprague-Dawley rats; old male rats (22 to 23 months), 10 mg/kg body weight, Tukey post hoc p=0.021): significantly enhanced RMI
- Reference Memory Index (RMI) vs controls, entire training (Male Sprague-Dawley rats; old male rats, 1 mg, p=0.357): performed similar as compared to controls
- Reference Memory Index (RMI) vs controls, entire training (Male Sprague-Dawley rats; old male rats, 5 mg, p=0.171): performed similar as compared to controls
- RMI vs vehicle, day 1 (Male Sprague-Dawley rats; old male rats, 10 mg, day 1, p=0.032): significantly enhanced RMI
- RMI vs vehicle, day 2 (Male Sprague-Dawley rats; old male rats, 10 mg, day 2, p<0.001): significant treatment effect
- RMI vs controls, retention trial at day 3 (Male Sprague-Dawley rats; old male rats, 10 mg, day 3, p=0.003): higher RMI
- inhibition of NET [2]: negligible
- inhibition of SERT [3]: negligible
- IC50 [1]: 2.8 µM
- effect on TBZ-induced increase of chow intake ([4]; 24.0 mg/kg with TBZ 1.0 mg/kg vs TBZ/vehicle, 30 minute session, p<0.001): significantly attenuated the effects of TBZ
- effect on TBZ-induced decrease of lever pressing ([4]; 24.0 mg/kg with TBZ 1.0 mg/kg vs TBZ/vehicle, 30 minute session, p<0.01): significantly attenuated the effects of TBZ
- reversal of the effort-related effects of tetrabenazine ([4]; highest dose (24.0 mg/kg) co-administered with TBZ 1.0 mg/kg): partially but significantly reversed the effects of tetrabenazine

Structure (SMILES): [O-][S@+](Cc1cncs1)C(c1ccccc1)c1ccccc1 [Compound C2, (R)-5-(diphenylmethanesulfinylmethyl)-1,3-thiazole]
- IC50 [1, 5]: 22.3 µM

Structure (SMILES): COc1cc2c(cc1OC)C1CC(=O)C(CC(C)C)CN1CC2 (stereo not drawn) [TBZ, 9,10-dimethoxy-3-(2-methylpropyl)-1,3,4,6,7, 11b-hexahydrobenzo[a]quinolizin-2-one]
- chow intake vs vehicle treatment ([4]; p<0.001): significantly increased chow intake
- lever pressing vs vehicle treatment ([4]; p<0.001): significantly decreased lever pressing
- chow intake vs vehicle treatment [4, 6]: increased chow intake
- lever pressing vs vehicle treatment [4, 6]: decreased lever pressing
